In ChEMBL document CHEMBL3638907, “Substituted pyrazolo[1,5-a]pyrimidine compounds as Trk kinase inhibitors” (2014) one finds IC50 data, which are given here for 2 compounds.

The assay has as its target Tyrosine-protein kinase JAK2 (Homo sapiens, UniProt O60674). Put plainly: Inhibition Assay: Compounds of Formula I were screened for their ability to inhibit Jak2 using the general enzyme inhibition assay method, in which the assay mixture contained 500 μM ATP, 10 μM Omnia Y7 peptide (Catalog # IVGN KNZ3071C, Invitrogen Corporation, Carlsbad, Calif.) and 4 nM Jak2 in a total volume of 20 μL. […] (catalog # IVGN PV4210).

pIC50: −log10 of the molar value. Some results are limits rather than exact numbers.

The pIC50 is the negative decadic logarithm of the IC50, by convention in mol/L.

Chain of Tyrosine-protein kinase JAK2 (O60674 whole entry): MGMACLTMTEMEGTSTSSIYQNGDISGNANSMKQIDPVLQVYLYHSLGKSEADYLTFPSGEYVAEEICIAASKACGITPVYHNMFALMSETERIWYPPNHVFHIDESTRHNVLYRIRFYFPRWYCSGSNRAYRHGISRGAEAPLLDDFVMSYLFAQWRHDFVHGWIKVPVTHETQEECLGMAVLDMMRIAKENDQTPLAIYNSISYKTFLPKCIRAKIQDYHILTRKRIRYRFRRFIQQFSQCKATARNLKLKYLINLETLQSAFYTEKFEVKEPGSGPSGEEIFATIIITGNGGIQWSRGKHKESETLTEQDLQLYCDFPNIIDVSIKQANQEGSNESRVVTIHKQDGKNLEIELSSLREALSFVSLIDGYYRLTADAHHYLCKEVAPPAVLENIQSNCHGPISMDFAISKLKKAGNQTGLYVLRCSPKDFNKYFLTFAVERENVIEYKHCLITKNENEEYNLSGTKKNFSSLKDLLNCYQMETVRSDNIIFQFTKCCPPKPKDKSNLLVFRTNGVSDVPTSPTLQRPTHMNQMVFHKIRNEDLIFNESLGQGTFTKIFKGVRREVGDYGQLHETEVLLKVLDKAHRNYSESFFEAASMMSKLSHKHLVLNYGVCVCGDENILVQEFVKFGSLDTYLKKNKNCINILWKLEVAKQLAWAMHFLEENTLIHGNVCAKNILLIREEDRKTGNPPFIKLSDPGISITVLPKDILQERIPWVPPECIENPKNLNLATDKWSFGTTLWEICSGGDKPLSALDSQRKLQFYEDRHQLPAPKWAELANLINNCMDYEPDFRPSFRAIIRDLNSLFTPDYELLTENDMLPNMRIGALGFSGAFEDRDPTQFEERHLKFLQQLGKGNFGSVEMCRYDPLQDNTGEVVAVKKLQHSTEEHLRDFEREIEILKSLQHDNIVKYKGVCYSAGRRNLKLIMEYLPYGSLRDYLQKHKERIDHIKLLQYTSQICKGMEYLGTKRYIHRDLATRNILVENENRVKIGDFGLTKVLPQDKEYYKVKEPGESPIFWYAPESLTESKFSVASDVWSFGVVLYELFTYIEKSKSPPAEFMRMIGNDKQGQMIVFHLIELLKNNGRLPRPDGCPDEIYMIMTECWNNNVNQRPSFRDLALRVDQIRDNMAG

For the compound `COc1ncc(F)cc1[C@H]1CCCN1c1ccn2ncc(C(=O)NCCCNC(=O)OC(C)(C)C)c2n1`, the negative logarithm of the IC50 (pIC50) is below 6.00.
With `COCCOc1ccc(F)cc1[C@H]1CCCN1c1ccn2ncc(C(=O)NC3CC3)c2n1` the figure was 6.33.
